Source: ChEMBL document CHEMBL1201862, “PubChem BioAssay data set” (2004)
Calls of active or inactive are those of the source. No stated cut-off is given here; in the data, actives have a measured IC50 and inactives only a lower limit.

Molecular target: Envelope glycoprotein gp160 (Human immunodeficiency virus 1, UniProt Q6QLK5)
Experiment: inhibitors of HIV fusion peptide binding, primary screen, biochemical, uHTS, fluorescence dequenching (AID 1986)

Chain of Envelope glycoprotein gp160 (Q6QLK5 whole entry, the tested form may be a part): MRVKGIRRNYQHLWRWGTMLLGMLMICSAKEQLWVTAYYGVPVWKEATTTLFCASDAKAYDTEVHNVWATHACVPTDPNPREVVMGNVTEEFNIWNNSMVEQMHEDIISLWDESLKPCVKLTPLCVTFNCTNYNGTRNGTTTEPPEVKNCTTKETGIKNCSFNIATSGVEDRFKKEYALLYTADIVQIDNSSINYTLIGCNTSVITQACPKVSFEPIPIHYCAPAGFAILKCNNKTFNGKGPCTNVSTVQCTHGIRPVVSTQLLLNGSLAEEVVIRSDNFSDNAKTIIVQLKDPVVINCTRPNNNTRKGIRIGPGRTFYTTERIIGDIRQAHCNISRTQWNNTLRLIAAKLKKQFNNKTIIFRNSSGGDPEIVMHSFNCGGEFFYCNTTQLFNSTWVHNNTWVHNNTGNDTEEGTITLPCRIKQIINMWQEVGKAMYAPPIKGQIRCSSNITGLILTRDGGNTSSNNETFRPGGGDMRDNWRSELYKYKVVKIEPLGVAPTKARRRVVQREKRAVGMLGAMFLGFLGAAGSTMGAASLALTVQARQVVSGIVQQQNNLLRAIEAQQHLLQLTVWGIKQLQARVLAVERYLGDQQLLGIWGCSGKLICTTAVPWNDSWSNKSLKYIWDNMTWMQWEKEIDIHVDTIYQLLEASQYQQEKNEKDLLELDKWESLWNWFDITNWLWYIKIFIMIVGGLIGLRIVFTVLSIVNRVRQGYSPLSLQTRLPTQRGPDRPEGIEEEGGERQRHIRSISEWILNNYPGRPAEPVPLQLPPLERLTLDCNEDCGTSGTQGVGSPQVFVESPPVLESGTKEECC

Row | Structure (SMILES) | IC50
1 | CCS(=O)(=O)C1=NSC2=NC(=O)/C(=C\c3ccc(OS(=O)(=O)c4ccccc4)c(OC)c3)C(=N)N21 | 16.8 µM (active)
2 | CCOc1ccc2nc(NC(=O)CSc3nc(O)c(C#N)c(-c4ccccc4)n3)sc2c1 | 11.1 µM (active)
3 | O=C(NN1C(=O)/C(=C/c2ccc(O)cc2)SC1=S)c1ccccc1O | 23.6 µM (active)
